{"source": "paper PMC8880313", "about": "“Discovery of Novel Andrographolide Derivatives as Antiviral Inhibitors against Human Enterovirus A71” (Pharmaceuticals, 2022)", "key": {"[1]": {"tested_on": "CV-A24", "experiment": "Post-treatment assay, antiviral spectrum", "type": "cell-based, Coxsackievirus A24", "protocol": "(§1) We were also interested in the antiviral potential of ZAF-47 against other Enteroviruses. As such, we performed post-treatment assay on RD cells infected with other Enteroviruses such as CV-A16, CV-A6, Echo7, CV-B5, CV-A24 and EV-D68.\nTo determine the inhibitory profiles of the hits, post treatment assay was performed. Seeded 24-well plates, with 1.5 × 10^5 RD cells per well, were incubated overnight at 37 °C with 5% CO2. The seeded cells were infected with EV-A71 (100 µL per well, MOI = 1) for 1 h at 37 °C with 5% CO2 and then rinsed with 1 mL of PBS twice. Different concentrations of the hits were used to treat the infected cells for 12 h at 37 °C with 5% CO2. At 12 hpi, the plates were frozen and thawed for 2 cycles (−80°C; 37 °C) before collection of supernatants to measure the viral titres via viral plaque assay.\n(§2) Measurement of the viral titres from collected supernatants was derived from viral plaque assays. To do this, 24-well plates, seeded with 2.4 × 10^5 RD cells per well, were used in plaque assays for EV-A71, EV-D68, Echo7, CV-A6, CV-A16 and CV-A24 while 24-well plates, seeded with 1.2 × 10^5 Vero cells per well, were used in plaque assays for CV-B5. Seeded cells were incubated overnight at 37 °C with 5% CO2. […] Subsequent formation of viral plaques was counted manually to quantify the viral titre in PFU/mL […]"}, "[2]": {"tested_on": "EV-A71 virions", "experiment": "Co-treatment assay", "type": "cell-based, human enterovirus A71 (EV-A71) strain 41", "conditions": "20 µM with virions for 30 min, 12 hpi", "protocol": "(§3) To confirm this finding, assays to investigate the effect of ZAF-47 on EV-A71 entry into cells were performed. With pre-treatment assay, we first treated the cells with different concentrations of ZAF-47 before subjecting them to EV-A71 infection. The aim was to investigate if ZAF-47 was able to bind to host surface receptors which would prevent the virions from binding and thus blocking viral entry. […] Even at the highest concentration, the reduction in viral titre (0.8 log10 PFU/mL decrease) was not as pronounced as post-treatment and could likely be due to drug toxicity. Thus, it is unlikely that ZAF-47 inhibits EV-A71 infection by binding with host receptors to block viral entry. With co-treatment assay, we first treated EV-A71 virions with ZAF-47 for 30 min before infecting the cells. The aim was to investigate if ZAF-47 was able to bind to viral surface proteins which would prevent the virions from binding to the host receptors and thus blocking viral entry. […] Thus, it is unlikely that ZAF-47 blocks EV-A71 entry into host cells by binding to viral surface proteins. Instead, using entry bypass assay, we were able to deduce that ZAF-47 most likely targets EV-A71 post-entry stages. […]\n(§4) Seeded 24-well plates, with 1.5 × 10^5 RD cells per well, were incubated overnight at 37 °C with 5% CO2. […] The plates were frozen down at 12 hpi for viral titre quantification using viral plaque assay."}, "[3]": {"tested_on": "EV-A71 RNA", "experiment": "Entry bypass assay (EV-A71 RNA transfection)", "type": "cell-based, human enterovirus A71 (EV-A71) strain 41", "conditions": "12 hpi", "protocol": "as §3, §4"}, "[4]": {"tested_on": "CV-A16", "experiment": "Post-treatment assay, antiviral spectrum", "type": "cell-based, Coxsackievirus A16", "protocol": "as §1\nTo determine the inhibitory profiles of the hits, post treatment assay was performed. Seeded 24-well plates, with 1.5 × 10^5 RD cells per well, were incubated overnight at 37 °C with 5% CO2. The seeded cells were infected with EV-A71 (100 µL per well, MOI = 1) for 1 h at 37 °C with 5% CO2 and then rinsed with 1 mL of PBS twice. […]\nas §2, with “CO2. Viral supernatants were diluted from 10^−1 to 10^−7 in reduced serum DMEM before infecting the cells with a volume of 100 µL for 1 h at 37 °C with 5% CO2 (33 °C instead for EV-D68). Cells were rinsed twice with PBS before overlaying with 1 mL of reduced serum DMEM containing 0.5% agarose (Vivantis, Shah Alam, Malaysia).” for “CO2.”"}}, "data": [{"smiles": "CC(=O)OC[C@]1(C)C(=O)CC[C@@]2(C)C(C/C=C3/C(=O)OC[C@@H]3Oc3cccc4cccnc34)=C(C)CC[C@@H]21", "note": "[ZAF-47, (14β)-(8′-Quinolinoxy)-3-ketone-9-dehydro-17-hydro-19-acetoxy–andrographolide]", "values": [{"measurement": "viral titre", "setting": "[1]; 10 µM, CV-A24-infected RD cells", "result": "reducing the viral titres of the above-listed enteroviruses significantly"}, {"measurement": "IC50", "setting": "[1]; CVA24, CV-A24, Enterovirus C, drug treatment duration 12 h, RD cells", "result": 1090, "unit": "nM"}, {"measurement": "viral titre versus DMSO treatment", "setting": "[2]", "result": "no significant difference"}, {"measurement": "viral reduction", "setting": "[3]; 10 µM", "result": 0.9, "unit": "log"}, {"measurement": "viral reduction", "setting": "[3]; 20 µM", "result": 2.6, "unit": "log"}, {"measurement": "viral titre", "setting": "[4]; 10 µM, CV-A16-infected RD cells", "result": "reducing the viral titres of the above-listed enteroviruses significantly"}, {"measurement": "IC50", "setting": "[4]; CVA16, CV-A16, Enterovirus A, drug treatment duration 16 h, RD cells", "result": 1380, "unit": "nM"}]}]}
